Broadly, the half-life is the time in which the quantity being followed falls by half. Low readings indicate rapid decline, high ones slow decline.

Data set [1] has as its target T1, SOCS2 (SBC2) (Homo sapiens, UniProt O14508).
T1 construct: SOCS2 (amino acids 32–198); His6 (N, cleaved yes); made in house; host or cells: E. coli BL21(DE3)
Put plainly: Intact ESI-MS of recombinant protein, covalent modification. Format: biochemical. As for the experimental part:
SBC2 protein (40 µM), SBC2 C111S, SBC4, SBC6, or CISH were incubated with an equimolar concentration of MN551 in 50 mM Tris, pH 8.0, 50 mM NaCl, 1 mM TCEP. At defined time points 20 µl samples were removed and the protein precipitated by the addition of 80 µl methanol. The precipitated protein was pelleted by centrifugation, washed with 500 µl methanol, and resuspended in an aqueous solution of 15% acetonitrile and 1% TFA. Samples were separated by HPLC on a C3 column using a 10–75% gradient of acetonitrile and analyzed using an Agilent 6130 quadrupole MS. Spectra were deconvoluted and integrated using Agilent LC/MSD ChemStation.

In data set [2] the test system is reduced glutathione (GSH). Put plainly: Glutathione (GSH) reactivity assay. Format: physicochemical. The following applies: 5 mM reduced glutathione (GSH) in potassium phosphate buffer; 5 mM GSH, 37 °C, pH 7.4. As for the experimental part: MN551/MN714 (1/10 μM) were incubated at 37 °C with 5 mM GSH in 100 mM potassium phosphate buffer, pH 7.4 (0.1% DMSO). […] Samples were then analyzed with an LC (Shimadzu LC-40)/MS/MS (Triple Quad 6500+). From the mass spectrum, peak area ratios (peak area analyte/peak area of a stable internal standard) were calculated and the percent compound remaining was determined relative to time zero.

For data set [3], the target named is T2, HiBiT-SOCS2 fusion in HeLa cells (Homo sapiens, UniProt O14508).
T2 construct: encoding SOCS2 (32–198) in pBiT3.1-N expression vector; expressed in transfected cells; host or cells: HeLa
Kind of data set: Split-NanoLuc CETSA, permeabilised cell format. Format: cell-based. How it is done:
One of the challenges with small-molecule binders displaying on-target activity with recombinant proteins, is to translate their utility to a cellular context. […] One of the advantages of CETSA is that target engagement can be monitored without the need for the development of a cell-permeable tracer molecule.
To test the cellular activity of MN551, we treated HeLa cells with 50 μM MN551 for 20 h and performed CETSA in a live-cell mode. We observed a small Tagg shift of 2 °C in live mode, which increased to 3–4 °C Tagg shift in the permeabilised format (Fig. 4d). We postulate that this observation could likely be a result of the low cellular permeability of MN551 owing to its negatively charged phosphate group.
N-terminal HiBiT-SOCS2 fusion was generated by encoding SOCS2 (32–198) in pBiT3.1-N expression vector (Promega). The transfection and target engagement assay were performed by modifying a NanoLuc target engagement protocol (Promega) with some small modifications. Briefly, HiBiT-SOCS2 fusion construct was transfected into HeLa cells using FuGENE HD (Promega) according to the manufacturer’s protocol. HiBiT-SOCS2 fusion construct was diluted into Transfection Carrier DNA (Promega) at a mass ratio of 1:100 or 1:10 for permeabilised and live-cell CETSA respectively. FuGENE HD was added at a ratio of 1:3 (μg DNA: μL FuGENE HD). 1 part (vol) of FuGENE HD complexes thus formed were combined with 20 parts (vol) of HeLa cells suspended at a density of 2 × 10^5 cells/mL, followed by incubation in a humidified, 37 °C + 5% CO2 incubator. After 20 h of incubation HeLa cells were detached and resuspended at a density of 2.5 × 10^5 cells/mL in Opti-MEM media without serum or phenol red but supplemented with protease inhibitor cocktail (Roche). […] Luminescence was recorded with GloMax Discover Microplate Reader (Promega). To generate apparent Tagg curves, the data is first converted to percent stabilized by relating the observed luminescence to the luminescence of the lowest temperature (40 °C) for that given sample. […]

Data set [4] relates to K562 cells. Kind of data set: cells. Format: cell-based. How it is done: Supplementary Figure 10: GSH kinetic study of compound MN551 in GSH stability assay. A and B.
A plot of unmodified MN551 v/s time. The starting concentrations of MN551 were 1 and 10 µM in A and B respectively. C. Reactivity of MN551 measured against Afatinib and Ibrutinib
Supplementary Figure 11: Cell viability assay to assess cytotoxicity of MN714. (EC50 reported as mean±SEM, technical replicates=3).
(1 picture or pasted object on this page, not shown here)

Values joined by “and” are separate entries in the source; they are usually repeats but may differ in a detail not shown here. Equal values may be shown once. Read-outs that look alike come from different tables or passages of the source. Bounds are passed on as bounds.

T2 sequence (O14508 32-198): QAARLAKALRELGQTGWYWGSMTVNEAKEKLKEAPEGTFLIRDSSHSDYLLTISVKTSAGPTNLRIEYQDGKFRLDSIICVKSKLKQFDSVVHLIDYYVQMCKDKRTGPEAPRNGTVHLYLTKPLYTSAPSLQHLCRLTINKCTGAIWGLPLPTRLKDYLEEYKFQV
T2 sequence (Q15370 whole entry, further chain, the tested form may be a part): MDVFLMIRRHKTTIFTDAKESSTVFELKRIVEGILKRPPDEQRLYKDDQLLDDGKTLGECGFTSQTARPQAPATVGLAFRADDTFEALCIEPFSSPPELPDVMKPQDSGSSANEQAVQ
T2 sequence (Q15369 whole entry, further chain, the tested form may be a part): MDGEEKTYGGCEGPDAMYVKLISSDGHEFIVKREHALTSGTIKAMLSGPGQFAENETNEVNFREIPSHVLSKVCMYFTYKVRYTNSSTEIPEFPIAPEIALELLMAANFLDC
T1 sequence (O14508 32-198): as the sequence (O14508 32-198) above
T1 sequence (Q15369 17-112, further chain): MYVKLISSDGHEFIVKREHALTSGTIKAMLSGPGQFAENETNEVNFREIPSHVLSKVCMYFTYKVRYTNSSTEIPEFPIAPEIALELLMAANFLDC
T1 sequence (Q15370 1-104, further chain): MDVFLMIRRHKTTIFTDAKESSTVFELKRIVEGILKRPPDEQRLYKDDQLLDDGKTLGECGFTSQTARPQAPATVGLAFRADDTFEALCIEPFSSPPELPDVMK

For `O=C(CCl)Nc1cccc(CNC(=O)[C@H](Cc2ccc(OP(=O)(O)O)cc2)NC(=O)Cc2ccc(F)cc2)c1` [MN551], in data set [1] (SBC2 (40 µM) treated with MN551 (40 µM)), the “covalent adduct observed by intact mass analysis” value is 1:1 covalent SOCS2:MN551 adduct and single covalent adduct. In data set [1] (recombinant SOCS2, equimolar compound), the “time to stoichiometric occupancy at Cys111” value is recorded as at most 2 h. The same compound registered a half-life in data set [2] above 1.17 h. The EC50 in data set [3] (MN551 CETSA dose response, Mean, read-out: EC50) is 1010 nM; in data set [3] (MN551 CETSA dose response, single replicates, read-out: EC50, individual replicates n1-n2), 755 nM and 1260 nM; in data set [3] (permeabilised CETSA, 1 hr, mean ± SEM, n = 2, read-out: EC50 of Tagg shift) it was 1000 ± 250 nM.
`CC(C)(C)C(=O)OCOP(=O)(OCOC(=O)C(C)(C)C)Oc1ccc(C[C@H](NC(=O)Cc2ccc(F)cc2)C(=O)NCc2cccc(NC(=O)CCl)c2)cc1` [MN714]: the EC50 in data set [4] (Homo sapiens, K562 24hrs, read-out: cell viability EC50) was 11800 nM. Also, in data set [4] (K562 cells), the “concentration up to which no significant cytotoxicity was observed” value lay in the range of 3000 to 10000 nM.

The values above are taken from PMC10564737, “Structure-based design of a phosphotyrosine-masked covalent ligand targeting the E3 ligase SOCS2” (Nature Communications, 2023).
